Data: patent EP4737449A1 (Changchun Genescience Pharmaceutical Co., Ltd., priority 2023, dated 2025)

Target: T1, p53-Y220C mutant protein (Homo sapiens, UniProt P04637, Y220C)
T1 construct: The recombinant Y220C p53 DBD protein with his-tag
Test: In vitro DNA binding activity assay (TR-FRET)
Format: biochemical
Conditions: concentration required to increase the binding activity of protein to DNA by 50%
Experimental: The activity of the compound to modulate the binding of the p53-Y220C mutant protein to DNA was detected using TR-FREt (Time-Resolved Fluorescence Resonance Energy Transfer). The recombinant Y220C p53 DBD protein with his-tag and the DNA sequence with biotin label were prepared firstly. Donor Eu(Europium)-SA(Streptavidin) can be bound to the DNA sequence through biotin, receptor for his antibody attached to alphaphycocyanin(APC, allophycocyanin), and his antibody can be bound to the Y220C p53 DBD protein with his-tag. When exposed to an excitation light with a wavelength of 340 nm, the donor Eu(Europium)-SA(Streptavidin) can emit fluorescence with a wavelength of 615 nm. If the donor and the receptor are close to each other, the donor will transfer part of the energy to the receptor and produce fluorescence with a wavelength of 665 nm. […] If there is no interaction, only 615 nm fluorescence is produced. • 1) Experimental steps • a. Adding 4 µL of dilute compound solution to each well of a 384-well microplate; • a. Adding 4 µL of 4X P53 working solution to each well of the 384-well microplate; • c. Sealing the 384-well microplate and equilibrating the system at room temperature for 60 min; • d. Adding 4 µl of biotin DNA solution to the 384-well microplate; • e. Adding 4 µl of 4X test solution (MAb Anti-6His-Eu and streptavidin-d2) to each well of the 384-well microplate; • f. Incubating overnight in the dark; and • g. Reading data of 665 nm and 615 nm wavelengths on the BMG multifunctional microplate reader. • 2) Data analysis • a. Calculating the ratio for each well (Ratio665 nm/615 nm-Ratiobackground); • b. Calculating the activity percentage (%activity) as follows: C = (Ave_Ac−Ave_Ba)/(Ave_Dc−Ave_Bd) [formula] R data = (A−Ave_Ba−CD)/(D−Ave_Bd)*(Ave_Dc−Ave_Bd) [formula] % Activity = R data/Ave_VC*100 [formula] • A: Fluorescence intensity of the sample at 665 nm; D: Fluorescence intensity of the sample at 615 nm; • Ba: Background fluorescence intensity of the culture plate at 665 nm; Bd: Background fluorescence intensity of the culture plate at 615 nm; • Dc: Background fluorescence intensity of HIS-E at 615 nm; Ac: Background fluorescence intensity of streptavidin-d2 at 665 nm); and • c. Calculating SC150 and plotting dose-effect curve
Compared to the absence of the compound of the present invention, the activation percentage of binding of the p53 mutant protein to DNA in the presence of the compound of the present invention is expressed as SC150, which indicates the concentration of the compound required to increase the DNA binding activity of the p53 mutant protein by 50%. The SC150 is calculated using Prism™.

Row | Structure (SMILES) | SC150 [nM]
1 | CN1CC[C@@H](Nc2cccc3c(CC(F)(F)F)c(C#CCNC(=O)c4cnn(C(C)(C)C(F)(F)F)c4)nn23)[C@@H](F)C1 [Compound 148, N-[3-(7-{[(3S,4R)-3-fluoro-1-methylpiperidin-4-yl]amino}-3-(2,2,2-trifluoroethyl)pyrazolo[1,5-a]pyridin-2-yl)prop-2-yn-1-yl]-1-(1,1,1-trifluoro-2-methylprop-2-yl)-1H-pyrazole-4-carboxamide] | 27
2 | Cc1ccc(C(=O)NCC#Cc2nn3c(N[C@@H]4CCN(C)C[C@@H]4F)cccc3c2CC(F)(F)F)cc1 [Compound 160, N-[3-(7-{[(3S,4R)-3-fluoro-1-methylpiperidin-4-yl]amino}-3-(2,2,2-trifluoroethyl)pyrazolo[1,5-a]pyridin-2-yl)prop-2-yn-1-yl]-4-methylbenzamide] | 84
3 | CN1CC[C@@H](Nc2cccc3c(CC(F)(F)F)c(C#CCNC(=O)c4cnn(C(C)(C)CF)c4)nn23)[C@@H](F)C1 [Compound 234, N-[3-(7-{[(3S,4R)-3-fluoro-1-methylpiperidin-4-yl]amino}-3-(2,2,2-trifluoroethyl)pyrazolo[1,5-a]pyridin-2-yl)prop-2-yn-1-yl]-1-(1-fluoro-2-methylpropan-2-yl)-1H-pyrazole-4-carboxamide] | 21
4 | CN1CC[C@@H](Nc2cccc3c(CC(F)(F)F)c(C#CCNC(=O)C4C5COCC54)nn23)[C@@H](F)C1 (stereo partly drawn) [Compound 240, N-[3-(7-{[(3S,4R)-3-fluoro-1-methylpiperidin-4-yl]amino}-3-(2,2,2-trifluoroethyl)pyrazolo[1,5-a]pyridin-2-yl)prop-2-yn-1-yl]-3-oxabicyclo[3.1.0]hexane-6-carboxamide] | 75
5 | CN1CC[C@@H](Nc2cccc3c(CC(F)(F)F)c(C#CCNC(=O)C4CC45CC5)nn23)[C@@H](F)C1 (stereo partly drawn) [Compound 241, N-[3-(7-{[(3S,4R)-3-fluoro-1-methylpiperidin-4-yl]amino}-3-(2,2,2-trifluoroethyl)pyrazolo[1,5-a]pyridin-2-yl)prop-2-yn-1-yl]spiro[2.2]pentane-1-carboxamide] | 82
6 | CN1CC[C@@H](Nc2cccc3c(CC(F)(F)F)c(C#CCNC(=O)c4cnn(C(C)(C)C#N)c4)nn23)[C@@H](F)C1 [Compound 248, 1-(1-cyano-1-methylethyl)-N-[3-(7-{[(3S,4R)-3-fluoro-1-methylpiperidin-4-yl]amino}-3-(2,2,2-trifluoroethyl)pyrazolo[1,5-a]pyridin-2-yl)prop-2-yn-1-yl]-1H-pyrazole-4-carboxamide] | 14
7 | CN1CC[C@@H](Nc2cccc3c(CC(F)(F)F)c(C#CCNC(=O)c4cnn(CC#N)c4)nn23)[C@@H](F)C1 [Compound 249, 1-cyanomethyl-N-[3-(7-{[(3S,4R)-3-fluoro-1-methylpiperidin-4-yl]amino}-3-(2,2,2-trifluoroethyl)pyrazolo[1,5-a]pyridin-2-yl)prop-2-yn-1-yl]-1H-pyrazole-4-carboxamide] | 17
8 | CN1CC[C@@H](Nc2cccc3c(CC(F)(F)F)c(C#CCNC(=O)c4ccc(=O)n(C)c4)nn23)[C@@H](F)C1 [Compound 265, N-[3-(7-{[(3S,4R)-3-fluoro-1-methylpiperidin-4-yl]amino}-3-(2,2,2-trifluoroethyl)pyrazolo[1,5-a]pyridin-2-yl)prop-2-yn-1-yl]-1-methyl-6-oxo-1,6-dihydropyridine-3-carboxamide] | 40
9 | COc1ccc(C(=O)NCC#Cc2nn3c(N[C@@H]4CCN(C)C[C@@H]4F)cccc3c2CC(F)(F)F)cn1 [Compound 266, N-(3-(7-{[(3S,4R)-3-fluoro-1-methylpiperidin-4-yl]amino}-3-(2,2,2-trifluoroethyl)pyrazolo[1,5-a]pyridin-2-yl)prop-2-yn-1-yl)-6-methoxynicotinamide] | 46
10 | CN1CC[C@@H](Nc2cccc3c(CC(F)(F)F)c(C#CCNC(=O)c4cnn(CC5CC5)c4)nn23)[C@@H](F)C1 [Compound 268, 1-(cyclopropylmethyl)-N-[3-(7-{[(3S,4R)-3-fluoro-1-methylpiperidin-4-yl]amino}-3-(2,2,2-trifluoroethyl)pyrazolo[1,5-a]pyridin-2-yl)prop-2-yn-1-yl]-1H-pyrazole-4-carboxamide] | 10
11 | CC(C1CC1)n1cc(C(=O)NCC#Cc2nn3c(N[C@@H]4CCN(C)C[C@@H]4F)cccc3c2CC(F)(F)F)cn1 (stereo partly drawn) [Compound 269, 1-(1-cyclopropylethyl)-N-[3-(7-{[(3S,4R)-3-fluoro-1-methylpiperidin-4-yl]amino}-3-(2,2,2-trifluoroethyl)pyrazolo[1,5-a]pyridin-2-yl)prop-2-yn-1-yl]-1H-pyrazole-4-carboxamide] | 8
12 | Cc1cc(C(=O)NCC#Cc2nn3c(N[C@@H]4CCN(C)C[C@@H]4F)cccc3c2CC(F)(F)F)cn1C [Compound 273, N-[3-(7-{[(3S,4R)-3-fluoro-1-methylpiperidin-4-yl]amino}-3-(2,2,2-trifluoroethyl)pyrazolo[1,5-a]pyridin-2-yl)prop-2-yn-1-yl]-1,5-dimethyl-1H-pyrrole-3-carboxamide] | 11
13 | Cc1c(C(=O)NCC#Cc2nn3c(N[C@@H]4CCN(C)C[C@@H]4F)cccc3c2CC(F)(F)F)cnn1C1CC1 [Compound 282, 1-cyclopropyl-N-[3-(7-{[(3S,4R)-3-fluoro-1-methylpiperidin-4-yl]amino}-3-(2,2,2-trifluoroethyl)pyrazolo[1,5-a]pyridin-2-yl)prop-2-yn-1-yl]-5-methyl-1H-pyrazole-4-carboxamide] | 19
14 | CN1CC[C@@H](Nc2cccc3c(CC(F)(F)F)c(C#CCNC(=O)c4cnn(CC5CCCC5)c4N)nn23)[C@@H](F)C1 [Compound 285] | 28
15 | CC(C)Cn1ncc(C(=O)NCC#Cc2nn3c(N[C@@H]4CCN(C)C[C@@H]4F)cccc3c2CC(F)(F)F)c1N [Compound 286, 5-amino-N-[3-(7-{[(3S,4R)-3-fluoro-1-methylpiperidin-4-yl]amino}-3-(2,2,2-trifluoroethyl)pyrazolo[1,5-a]pyridin-2-yl)prop-2-yn-1-yl]-1-isobutyl-1H-pyrazole-4-carboxamide] | 8
16 | CN1CC[C@@H](Nc2cccc3c(CC(F)(F)F)c(C#CCNC(=O)c4cnn(CC(C)(C)C)c4N)nn23)[C@@H](F)C1 [Compound 287] | 23
17 | Cc1nn(C(C)(C)C)c(N)c1C(=O)NCC#Cc1nn2c(N[C@@H]3CCN(C)C[C@@H]3F)cccc2c1CC(F)(F)F [Compound 288, 5-amino-1-tert-butyl-N-[3-(7-{[(3S,4R)-3-fluoro-1-methylpiperidin-4-yl]amino}-3-(2,2,2-trifluoroethyl)pyrazolo[1,5-a]pyridin-2-yl)prop-2-yn-1-yl]-3-methyl-1H-pyrazole-4-carboxamide] | 69
18 | Cc1cc(N)c(C(=O)NCC#Cc2nn3c(N[C@@H]4CCN(C)C[C@@H]4F)cccc3c2CC(F)(F)F)cn1 [Compound 294, 4-amino-N-[3-(7-{[(3S,4R)-3-fluoro-1-methylpiperidin-4-yl]amino}-3-(2,2,2-trifluoroethyl)pyrazolo[1,5-a]pyridin-2-yl)prop-2-yn-1-yl]-6-methylnicotinamide] | 39
19 | Cc1ccc(C(=O)NCC#Cc2nn3c(N[C@@H]4CCN(C)C[C@@H]4F)cccc3c2CC(F)(F)F)c(N)n1 [Compound 295, 2-amino-N-[3-(7-{[(3S,4R)-3-fluoro-1-methylpiperidin-4-yl]amino}-3-(2,2,2-trifluoroethyl)pyrazolo[1,5-a]pyridin-2-yl)prop-2-yn-1-yl]-6-methylnicotinamide] | 45
20 | CN1CC[C@@H](Nc2cccc3c(CC(F)(F)F)c(C#CCNC(=O)c4ccn5c4CCC5)nn23)[C@@H](F)C1 [Compound 302, N-[3-(7-{[(3S,4R)-3-fluoro-1-methylpiperidin-4-yl]amino}-3-(2,2,2-trifluoroethyl)pyrazolo[1,5-a]pyridin-2-yl)prop-2-yn-1-yl]-2,3-dihydro-1H-pyrrolizine-7-carboxamide] | 25
21 | CN1CC[C@@H](Nc2cccc3c(CC(F)(F)F)c(C#CCNC(=O)c4cnn(C5(O)CC5)c4)nn23)[C@@H](F)C1 [Compound 303, N-[3-(7-{[(3S,4R)-3-fluoro-1-methylpiperidin-4-yl]amino}-3-(2,2,2-trifluoroethyl)pyrazolo[1,5-a]pyridin-2-yl)prop-2-yn-1-yl]-1-(1-hydroxycyclopropyl)-1H-pyrazole-4-carboxamide] | 14
